In data set [1] the test system is four liver cancer cell lines (Hep3b, HepG2, C3A, Huh7). The data set is described as follows: combination studies in four liver cancer cell lines (overall synergy statements). Format: cell-based. The note with it: combination with miRNA mimic instead of sorafenib; data not shown.
The conditions of data set [2]: cited from earlier work.
The test system of the next data set is Hep3b liver cancer cells. The data set is described as follows: sorafenib dose-effect, AlamarBlue cell proliferation. It is filed as cell-based. The conditions noted are these: Homo sapiens, 72 h, AlamarBlue 3 days post drug treatment, range from two or three experiments. As for the experimental part: (§1) FIG. 2 illustrates dose-effect curves of sorafenib in liver cancer cells. Cells were seed in 96-well plate at 2000 cells per well. Three days after seeding the cells, sorafenib in a serial dilution from (0.1-100 μM) was added to the medium. Cell proliferation or percent inhibition was determined by AlamarBlue 3 days post drug treatment. Data were normalized to cells treated with sorafenib solvent (1% DMSO final concentration).
(§2) Sorafenib dose response curves were established in each cell line, and the cell proliferation was determined using AlamarBlue (Invitrogen) 3 days post drug treatment. Nonlinear regression and IC50 values were calculated using the GraphPad (Prism) software.
(§3) FIG. 2 illustrates dose-effect curves of sorafenib in liver cancer cells. Cells were seed in 96-well plate at 2000 cells per well. Three days after seeding the cells, sorafenib in a serial dilution from (0.1-100 μM) was added to the medium. Cell proliferation or percent inhibition was determined by AlamarBlue 3 days post drug treatment, and IC50 values were calculated using the GraphPad software.
(In general: Resazurin is reduced to fluorescent resorufin, in cell work by metabolically active cells.)

In the next data set the test system is HepG2 liver cancer cells. The data set is described as above. Format: cell-based. The conditions noted are these: Homo sapiens, 72 h, AlamarBlue 3 days post drug treatment, range from two or three experiments. As for the experimental part:
as §1, §2, §3

For a further data set, the system named is C3A liver cancer cells. The data set is described as above. Format: cell-based. The note with it: 72 h, AlamarBlue 3 days post drug treatment, range from two or three experiments. On the procedure: as §1, §2, §3
The next data set has as its system Huh7 liver cancer cells. The data set is described as above. The conditions noted are these: Homo sapiens, Huh-7, 72 h, AlamarBlue 3 days post drug treatment, range from two or three experiments. It is filed as cell-based. On the procedure:
as §1, §2, §3

The structures appear in SMILES notation. Read-outs that look alike come from different tables or passages of the source.

`O=c1[nH]cc(F)c(=O)[nH]1` [5-FU]: in data set [1], the “synergy in combinations with other chemotherapeutic agents” value is recorded as “synergy was not identified”.

Regarding `CNC(=O)c1cc(Oc2ccc(NC(=O)Nc3ccc(Cl)c(C(F)(F)F)c3)cc2)ccn1.Cc1ccc(S(=O)(=O)O)cc1` [Sorafenib tosylate, 4-(4-{3-[4-Chloro-3 (trifluoromethyl)phenyl]ureido}phenoxy) N-methylpyridine-2-carboxamide 4-methylbenzenesulfonate], the solubility result in data set [2] (PEG 400) was “soluble”; in data set [2] (aqueous media) it was “practically insoluble”; in data set [2] (ethanol) it was “slightly soluble”.

As to `CNC(=O)c1cc(Oc2ccc(NC(=O)Nc3ccc(Cl)c(C(F)(F)F)c3)cc2)ccn1` [Sorafenib], the half-maximal inhibitory concentration (IC50) (as a rule, the concentration that inhibits the measured activity by half) with Hep3b liver cancer cells was 5.4 to 12.7 µM; in the data set on HepG2 liver cancer cells, 6.7 to 9 µM; with C3A liver cancer cells, 10.7 to 11.8 µM; with Huh7 liver cancer cells, 13.1 to 16 µM.

`COc1cccc2c1C(=O)c1c(O)c3c(c(O)c1C2=O)C[C@@](O)(C(=O)CO)C[C@@H]3O[C@H]1C[C@H](N)[C@H](O)[C@H](C)O1` [doxorubicin]: the “synergy in combinations with other chemotherapeutic agents” value in data set [1] is listed as “synergy was not identified”.

These data come from US9517245B2, “Sorafenib-microRNA combination therapy for liver cancer” (Mirna Therapeutics, Inc., priority 2014, dated 2016).
